We go through 109 compounds from a melting point compilation (Tetko et al.).

SMILES strings stand for the structures.

As to `Nc1ccc(S(=O)(=O)O)cc1`, the melting point (in general, the temperature of the solid-liquid transition) came out at 365 °C.
To `CC(C)(C)C1=CC(=Cc2cc(C(C)(C)C)c(O)c(C(C)(C)C)c2)C=C(C(C)(C)C)C1=O` belongs 156 to 160 °C.
On to `Cc1ccc(Br)nc1`, for which the melting point amounted to 43 °C.
Regarding `CCOc1ccccc1OS(=O)(=O)NC(=O)Nc1nc(OC)cc(OC)n1`, the melting point was 150 °C.
As for `C=C(CC(=O)O)C(=O)O`, the melting point came to 175 °C.
For the compound `CC1=CCC=C(C)CCC=C(C)CCC(C(C)C)C=C1` (centres undefined), the melting point lay within 59 to 61 °C.
Take `CCCCCCCCc1ccc(C(Cl)=Cc2ccc(OCC)cc2)cc1`: the melting point turned out to be 32 °C.
Under `O=NN(CCCl)C(=O)NCCCl` stands 31 °C; under `CCSC#N`, -85.5 °C.
For `CSCC[C@H](NC(=O)OCC1c2ccccc2-c2ccccc21)C(=O)O`, the melting point was in the range of 132 to 136 °C.
To `Clc1ncccc1-c1cccc(Br)n1` belongs 140 °C; to `CCOC(N)=S`, 41 °C.
Take `COC1=CC(=O)OC1`: the melting point is 60 to 65 °C.
In the case of `N[C@@H](Cc1cc(Br)c(O)c(Br)c1)C(=O)O`, the melting point turned out to be 245 °C.
Regarding `CCCC(C)CC(C)O` (centres undefined), the melting point was -102 °C.
Consider `CNC(=O)c1cccnc1`, for which the melting point stood at 104 °C.
Regarding `O=C(Oc1c(F)c(F)c(F)c(F)c1F)c1cccnc1`, the melting point lay within 65.5 to 67 °C.
With `O=C(NC(=S)Nc1ccc(Cl)cc1)c1ccc(-c2ccccc2)cc1`, the melting point is 165 °C.
`ON=C(c1ccc(F)cc1)c1ccc(F)cc1` showed a melting point of 140 °C.
In the case of `O=C(O)C(F)(F)C(F)(F)C(F)(F)C(F)(F)C(F)(C(F)(F)F)C(F)(F)F`, the melting point worked out at 13 °C.
Take `NC(CCCC(N)C(=O)O)C(=O)O` (centres undefined): the melting point is 300 °C.
For the compound `O=C(O)[C@H]1COCN1C(=O)OCc1ccccc1`, the melting point was 70 to 74 °C.
Under `O=CC(C=O)c1ccncc1` stands 320 °C; under `N#Cc1cc2c(=O)oc3ccccc3c2nc1N`, 289 °C.
`C1CCC(CCCCC2CCCCC2)CC1`: the melting point is 12 °C.
To `OC1CCN(Cc2ccccc2)CC1` belongs 62 °C; to `CCOC(=O)c1sc(SCc2ccccc2)c2c1CC(C)(C)CC2=O`, 119 to 122 °C.
`CC1=NN(c2ccccc2)C(=O)/C1=C\c1ccccc1O` came in with a melting point of 153 to 154 °C.
To `Brc1cccc2cccnc12` belongs 58 to 59 °C.
Under `CC(=O)CC(=O)c1c(C)c(C)c(C)c(C)c1C` stands 73.8 to 75.1 °C.
Regarding `O=[N+]([O-])c1ccc(Sc2ccc([N+](=O)[O-])cc2)cc1`, the melting point was determined as 160 °C.
Consider `COC(=O)Nc1nc2ccc(C(=O)c3cccs3)cc2[nH]1`, for which the melting point fell in the range of 300 to 305 °C.
To `COc1cc2c(cc1O)CCNC2C` (centres undefined) belongs 222 °C; to `O=C1Cc2cc3c(cc21)C(=O)C3`, 207 °C.
To `Cc1ccc(N2CCNCC2)cc1` belongs 29 to 34 °C; to `O=[N+]([O-])c1cccc(N=C=S)c1`, 58 to 60 °C.
As to `COc1cc2ccc(=O)oc2c(O)c1O`, the melting point was found to be 231 °C.
`FC(F)(F)C(F)(F)C(F)(F)C(F)(C(F)(F)F)C(F)(F)F` displayed a melting point of -119 °C.
In the case of `CS(=O)(=O)c1ccc2ccn(O)c2c1`, the melting point lay in the range of 174 to 176 °C.
In turn, `O=C(O)c1cscc1S(=O)(=O)c1ccc(Cl)cc1` came in with a melting point of 214 to 216 °C.
`N#CCOc1cccc(Cl)c1`: the melting point was 29 °C.
Compound `CC(=O)OC1CCC2(C)C(CC(=O)C3C2CC(OC(C)=O)C2(C)C(C(C)CCC(=O)O)CCC32)C1` (centres undefined) came in with a melting point of 105 to 107 °C.
Compound `O=[N+]([O-])c1cc(C=NNc2ccccc2)ccc1C=NNc1ccccc1` registered a melting point of 185 °C.
In the case of `CCC(C)=NNc1ccc([N+](=O)[O-])cc1[N+](=O)[O-]`, the melting point amounted to 117 °C.
Compound `Nc1cc(Cl)c2nonc2c1[N+](=O)[O-]` returned a melting point of 276 to 277 °C.
The compound `CCCCCCCCCC(=O)c1ccccc1` returned a melting point of 34 to 38 °C.
To `CON=C(c1cc2ccccc2o1)c1cc2ccccc2o1` belongs 131 to 132 °C; to `Oc1ccc(Cl)cc1F`, 20 °C; to `Nc1ccc(C(=O)O)nc1`, 218 °C.
Turning to `Oc1nccc(C(F)(F)F)n1`, the melting point lay within 217 to 218 °C.
Take `Oc1ccc(O)c2ccccc12`: the melting point lay in the range of 188 to 192 °C.
Compound `NC(=O)CC(N)C(=O)O` (centres undefined) came in with a melting point of 234 °C.
For the compound `CCCCCCCCCCCCCCCCCCCCCCCC(=O)O`, the melting point worked out at 84.2 °C.
Under `COC(=O)C=Cc1ccc([N+](=O)[O-])c(C=CC(=O)OC)c1` stands 200 °C; under `O=C(O)C1CCC(c2ccc(Cl)cc2)CC1` (centres undefined), 250 to 255 °C; under `O=[N+]([O-])c1cc([N+](=O)[O-])c(OCCO)cc1OCCO`, 136 °C.
Compound `N#Cc1c(-c2cccs2)cc(-c2ccco2)[nH]c1=O` returned a melting point of 318 to 320 °C.
As to `O=[N+]([O-])c1ccc(N2CCCCC2)cc1`, the melting point lay in the range of 104 to 106 °C.
To `CC(CP(c1ccccc1)c1ccccc1)P(c1ccccc1)c1ccccc1` (centres undefined) belongs 68 to 73 °C.
`O=C(O)C(F)(F)C(F)(F)C(F)(F)C(F)(F)C(F)(F)C(F)(C(F)(F)F)C(F)(F)F` gave a melting point of 33 to 36 °C.
For the compound `O=C(C=Cc1ccc(-c2ccc(Cl)cc2)o1)c1ccccc1`, the melting point is 128 to 129 °C.
In the case of `C=CCO`, the melting point was -129 °C.
With `C1CCN(SSN2CCCCC2)CC1`, the melting point was 64.2 °C.
`CCOC(=O)Nc1ccc(C)cc1[N+](=O)[O-]` yielded a melting point of 64 to 65 °C.
`c1n[nH]c2c1CCCC2` gave a melting point of 82 °C.
In turn, `CC(=O)Nc1cc(Cl)c(Cl)cc1NC(C)=O` came in with a melting point of 255 to 258 °C.
Take `Cc1c(C)n(C)c2ccccc12`: the melting point came to 18 °C.
To `CCN(CC)CCn1cnc2c1c(=O)n(C)c(=O)n2C` belongs 75 °C.
The compound `CC(C)COC(=O)c1ccccc1O` came in with a melting point of 5.9 °C.
For the compound `CC1=C(C(=O)OCCC(C)C)C(c2ccco2)NC(=O)N1` (centres undefined), the melting point amounted to 176 °C.
Regarding `CC(=O)Oc1ccccc1C(=O)OC(=O)c1ccccc1OC(C)=O`, the melting point was found to be 83 °C.
Under `C=C1C(C)CCC2(C)C3=C(C(=O)C4(CC4C)C(OC(C)=O)C3=O)C(OC(C)=O)C(OC(C)=O)C12` (centres undefined) stands 173 °C; under `CC(=O)c1cc2c(cc1N)OCO2`, 168 to 171 °C.
Compound `ClCc1nnc(C2CC2)s1` gave a melting point of 80 to 84 °C.
In turn, `Cc1nc(-c2ccccc2)sc1C(=O)O` gave a melting point of 214 to 215 °C.
For `N#CC1=C(N)Oc2c(c(C(F)(F)F)nn2-c2ccccc2)C1c1ccc(O)cc1` (centres undefined), the melting point is 218 °C.
The compound `COc1ccccc1/C=C(\C#N)c1nc2ccccc2s1` had a melting point of 158 °C.
`COC(=O)[C@H]1CC[C@H](C(=O)OC)CC1` had a melting point of 67 to 70 °C.
Take `OCc1ccc(-c2ccco2)s1`: the melting point lay within 56 to 57 °C.
Under `Cc1cccc(C(N)=NO)c1` stands 143 to 146 °C.
Under `C#CC1(O)CCC2C3CCC4CC(O)CCC4(C)C3CCC21C` (centres undefined) stands 257 °C; under `Cc1cc(C=O)c(O)c(C=O)c1`, 127 to 131 °C; under `CC(C)CCCC(C)C1CCC2C3CCC4CCCCC4(C)C3CCC12C` (centres undefined), 79 to 80 °C.
As to `OC1CCCCC1Cl` (centres undefined), the melting point worked out at 29 °C.
Turning to `Fc1ccc(-c2ccno2)cc1`, the melting point is 55 °C.
The compound `O=C(O)C=CC(=O)Nc1ccccc1` yielded a melting point of 177 °C.
In turn, `O=C(Oc1c(F)c(F)c(F)c(F)c1F)c1ccccc1N1CCOCC1` showed a melting point of 87 to 90 °C.
To `NS(=O)(=O)c1cccc(C(=O)c2ccccc2)c1` belongs 144 °C; to `NNC(=O)CNS(=O)(=O)c1cccc2nsnc12`, 151 to 153 °C.
Compound `Cc1ccc(-n2c(C)cc(C(=O)CCl)c2C)cc1` had a melting point of 81 to 83 °C.
Compound `CN(C)C(CSC(N)=O)CSC(N)=O` showed a melting point of 188 °C.
`CCCCCS(=O)CCCCC` yielded a melting point of 58 °C.
Under `CC1=NN(c2ccccc2)C(=O)C1C1C(=O)N(c2ccccc2)N=C1C` (centres undefined) stands 355 °C; under `O=C(Nc1ccc(Br)cc1)C(C(F)(F)F)C(F)(F)F`, 186 °C.
In turn, `O=C(O)c1c(Cl)c(Cl)c(Cl)c(Cl)c1C(=O)Nc1cccc(Cl)c1Cl` showed a melting point of 198 °C.
`Nc1ccc(C(=O)NCCC(=O)O)cc1` had a melting point of 152 °C.
For the compound `O=C(O)c1cccc(-c2ccccc2)c1`, the melting point was 167 °C.
For the compound `CCCSc1ccc2[nH]c(NC(=O)OC)nc2c1`, the melting point turned out to be 208 °C.
`Cc1ccc(-c2cc(NN=c3c(C(F)(F)F)nc4ccccc4[nH]c3=O)[nH]n2)cc1` registered a melting point of 135 °C.
The compound `CC(C)CC(C)(O)C#CC(C)(O)CC(C)C` (centres undefined) registered a melting point of 42 to 44 °C.
`CCOP(=S)(OCC)SCSP(=S)(OCC)OCC` displayed a melting point of -12 °C.
For the compound `N#C/C(=N\Nc1c(Cl)cc(Cl)cc1Cl)c1nc2ccccc2[nH]1`, the melting point amounted to 263 °C.
Turning to `CCOC=C(C#N)S(=O)(=O)c1ccc(Cl)cc1`, the melting point lay in the range of 121 to 124 °C.
`N=c1sc(C(=O)c2cccs2)nn1-c1[nH]nc(-c2ccccc2)c1Br` displayed a melting point of 102 to 103 °C.
As to `Cn1ccc2c1CCCC2=O`, the melting point is 85 °C.
Take `COc1ccc2c(c1OC)CN(C)CCc1cc3c(cc1C(=O)C2)OCO3`: the melting point stood at 160 °C.
`CN(C)c1ccc2nc3ccc(=O)cc-3sc2c1` registered a melting point of 216 °C.
To `Clc1ccc(Cc2c(N=Cc3ccc4c(c3)OCO4)n[nH]c2N=Cc2ccc3c(c2)OCO3)cc1` belongs 206 to 208 °C.
Turning to `CC(C)(C)OC(=O)N1CCN(c2ccccc2N)CC1`, the melting point was 120 to 122 °C.
